Source: patent US12252524B2, “GIP/GLP1 co-agonist compounds” (Eli Lilly and Company, priority 2018, dated 2025)
Numbered stars: 1 amine (or outer) side, 2 acyl side, 3 side chain; on linkers, the order of the positions; unused ones are H or OH. Square brackets hold non-standard residues; d marks the D form. Side chains are listed from the residue outwards. Peptide text beside a SMILES is read from it. * marks the point of attachment. C20 diacid = O=C(O)CCCCCCCCCCCCCCCCCCC(=O)*; C18 diacid = O=C(O)CCCCCCCCCCCCCCCCC(=O)*; αMePhe(2-F) = C[C@](N)(Cc1ccccc1F)C(=O)O; C16 diacid = O=C(O)CCCCCCCCCCCCCCC(=O)*; γGlu = O=C(O)[C@H](CCC(=O)[*:2])N[*:1]; αMeL = CC(C)C[C@](C)(N)C(=O)O; Orn = NCCC[C@H](N)C(=O)O; Dab = NCC[C@H](N)C(=O)O; Dap = NC[C@H](N)C(=O)O; AEEA = NCCOCCOCC(=O)O; Aib = CC(C)(N)C(=O)O

Experiments:
[1] = target: T1, gastric inhibitory peptide receptor (GIPR) (Homo sapiens, UniProt P48546); assay: cAMP pharmacological functional assay in presence of casein, hGIPR; type: cell-based; settings: HEK293 cells expressing hGIPR, 0.1% Casein, geometric mean; read-out: hGIPR cAMP Rel EC50 nM (SEM, n)
T1 sequence (P48546 22-466): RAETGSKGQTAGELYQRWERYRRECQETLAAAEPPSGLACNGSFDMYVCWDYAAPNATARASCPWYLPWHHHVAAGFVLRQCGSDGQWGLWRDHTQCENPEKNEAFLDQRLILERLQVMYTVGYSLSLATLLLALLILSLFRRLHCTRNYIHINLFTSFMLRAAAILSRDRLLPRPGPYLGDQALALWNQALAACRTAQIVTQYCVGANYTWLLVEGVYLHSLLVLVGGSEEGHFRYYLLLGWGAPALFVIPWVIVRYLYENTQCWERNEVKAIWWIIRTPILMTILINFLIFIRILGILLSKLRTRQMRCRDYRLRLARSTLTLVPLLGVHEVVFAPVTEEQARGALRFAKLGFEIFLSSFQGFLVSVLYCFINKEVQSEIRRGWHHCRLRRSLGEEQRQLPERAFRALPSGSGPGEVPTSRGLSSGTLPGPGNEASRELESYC

[2] = target: human GLP-1 receptor (GLP-1R) (Homo sapiens, UniProt P43220); assay: cAMP pharmacological functional assay in presence of casein, hGLP-1R; type: cell-based; settings: HEK293 cells expressing hGLP-1R, 0.1% Casein, geometric mean; read-out: hGLP1R cAMP Rel EC50 nM (SEM, n)
Chain of human GLP-1 receptor (GLP-1R) (P43220 24-463): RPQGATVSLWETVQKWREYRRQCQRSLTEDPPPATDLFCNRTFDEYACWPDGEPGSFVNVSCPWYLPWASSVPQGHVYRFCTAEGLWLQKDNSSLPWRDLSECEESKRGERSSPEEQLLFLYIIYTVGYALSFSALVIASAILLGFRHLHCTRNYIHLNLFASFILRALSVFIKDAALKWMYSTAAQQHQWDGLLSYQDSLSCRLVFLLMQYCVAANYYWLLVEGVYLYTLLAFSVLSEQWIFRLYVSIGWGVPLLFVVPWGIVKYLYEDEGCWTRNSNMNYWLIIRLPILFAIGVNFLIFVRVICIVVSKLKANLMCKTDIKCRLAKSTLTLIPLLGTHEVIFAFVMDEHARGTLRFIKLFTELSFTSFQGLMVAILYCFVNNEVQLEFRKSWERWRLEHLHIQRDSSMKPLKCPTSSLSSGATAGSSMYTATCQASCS

| Compound | EC50 [1] [nM] | EC50 [2] [nM] |
| --- | --- | --- |
| CC[C@H](C)[C@H](NC(=O)[C@H](CC(C)C)NC(=O)[C@H](Cc1ccc(O)cc1)NC(=O)[C@@H](CCC(=O)O)NC(=O)[C@@H](NC(=O)[C@H](Cc1ccccc1)NC(=O)[C@@H](NC(=O)C(C)(C)NC(=O)[C@H](CCC(N)=O)NC(=O)[C@H](C)NC(=O)[C@H](CCCCNC(=O)COCCOCCNC(=O)COCCOCCNC(=O)CC[C@H](NC(=O)CCCCCCCCCCCCCCCCC(=O)O)C(=O)O)NC(=O)[C@H](CCC(=O)O)NC(=O)[C@H](CC(=O)O)NC(=O)[C@H](CC(C)C)NC(=O)[C@](C)(CC(C)C)NC(=O)[C@@H](NC(=O)[C@H](CO)NC(=O)[C@H](Cc1c[nH]cn1)NC(=O)[C@H](CC(=O)O)NC(=O)[C@H](CO)NC(=O)[C@@H](NC(=O)[C@](C)(Cc1ccccc1F)NC(=O)[C@@H](NC(=O)CNC(=O)[C@H](CCC(=O)O)NC(=O)C(C)(C)NC(=O)[C@@H](N)Cc1ccc(O)cc1)[C@@H](C)O)[C@@H](C)O)[C@@H](C)CC)[C@@H](C)O)[C@@H](C)CC)C(=O)N[C@@H](CCC(=O)O)C(=O)NCC(=O)NCC(=O)N1CCC[C@H]1C(=O)N[C@@H](CO)C(=O)N[C@@H](CO)C(=O)NCC(=O)N[C@@H](C)C(=O)N1CCC[C@H]1C(=O)N1CCC[C@H]1C(=O)N1CCC[C@H]1C(=O)N[C@@H](CO)C(N)=O [Example 169] (H-Y[Aib]EGT[αMePhe(2-F)]TSDHSI[αMeL]LDEK([AEEA-AEEA-γGlu-C18 diacid])AQ[Aib]TFI[dE]YLIEGGPSSGAPPPS-NH2) | 0.86 | 3.37 |
| CC[C@H](C)[C@H](NC(=O)[C@H](CC(C)C)NC(=O)[C@H](Cc1ccc(O)cc1)NC(=O)[C@@H](CCC(=O)O)NC(=O)[C@@H](NC(=O)[C@H](Cc1ccccc1)NC(=O)[C@@H](NC(=O)C(C)(C)NC(=O)[C@H](CCC(N)=O)NC(=O)[C@H](C)NC(=O)[C@H](CCCCNC(=O)COCCOCCNC(=O)COCCOCCNC(=O)CC[C@H](NC(=O)CCCCCCCCCCCCCCC(=O)O)C(=O)O)NC(=O)[C@H](CCC(=O)O)NC(=O)[C@H](CC(=O)O)NC(=O)[C@H](CC(C)C)NC(=O)[C@](C)(CC(C)C)NC(=O)[C@@H](NC(=O)[C@H](CO)NC(=O)[C@H](Cc1c[nH]cn1)NC(=O)[C@H](CC(=O)O)NC(=O)[C@H](CO)NC(=O)[C@@H](NC(=O)[C@](C)(Cc1ccccc1F)NC(=O)[C@@H](NC(=O)CNC(=O)[C@H](CCC(=O)O)NC(=O)C(C)(C)NC(=O)[C@@H](N)Cc1ccc(O)cc1)[C@@H](C)O)[C@@H](C)O)[C@@H](C)CC)[C@@H](C)O)[C@@H](C)CC)C(=O)N[C@@H](CCC(=O)O)C(=O)NCC(=O)NCC(=O)N1CCC[C@H]1C(=O)N[C@@H](CO)C(=O)N[C@@H](CO)C(=O)NCC(=O)N[C@@H](C)C(=O)N1CCC[C@H]1C(=O)N1CCC[C@H]1C(=O)N1CCC[C@H]1C(=O)N[C@@H](CO)C(N)=O [Example 170] (H-Y[Aib]EGT[αMePhe(2-F)]TSDHSI[αMeL]LDEK([AEEA-AEEA-γGlu-C16 diacid])AQ[Aib]TFI[dE]YLIEGGPSSGAPPPS-NH2) | 0.569 | 10.4 |
| CC[C@H](C)[C@H](NC(=O)[C@H](CC(C)C)NC(=O)[C@H](Cc1ccc(O)cc1)NC(=O)[C@@H](CCC(=O)O)NC(=O)[C@@H](NC(=O)[C@H](Cc1ccccc1)NC(=O)[C@@H](NC(=O)C(C)(C)NC(=O)[C@H](CCC(N)=O)NC(=O)[C@H](C)NC(=O)[C@H](CCCCNC(=O)COCCOCCNC(=O)COCCOCCNC(=O)CC[C@H](NC(=O)CCCCCCCCCCCCCCCCCCC(=O)O)C(=O)O)NC(=O)[C@H](CCCN)NC(=O)[C@H](CC(=O)O)NC(=O)[C@H](CC(C)C)NC(=O)[C@](C)(CC(C)C)NC(=O)[C@@H](NC(=O)[C@H](CO)NC(=O)[C@H](Cc1c[nH]cn1)NC(=O)[C@H](CC(=O)O)NC(=O)[C@H](CO)NC(=O)[C@@H](NC(=O)[C@](C)(Cc1ccccc1F)NC(=O)[C@@H](NC(=O)CNC(=O)[C@H](CCC(=O)O)NC(=O)C(C)(C)NC(=O)[C@@H](N)Cc1ccc(O)cc1)[C@@H](C)O)[C@@H](C)O)[C@@H](C)CC)[C@@H](C)O)[C@@H](C)CC)C(=O)N[C@@H](CCC(=O)O)C(=O)NCC(=O)NCC(=O)N1CCC[C@H]1C(=O)N[C@@H](CO)C(=O)N[C@@H](CO)C(=O)NCC(=O)N[C@@H](C)C(=O)N1CCC[C@H]1C(=O)N1CCC[C@H]1C(=O)N1CCC[C@H]1C(=O)N[C@@H](CO)C(N)=O [Example 171] (H-Y[Aib]EGT[αMePhe(2-F)]TSDHSI[αMeL]LD[Orn]K([AEEA-AEEA-γGlu-C20 diacid])AQ[Aib]TFI[dE]YLIEGGPSSGAPPPS-NH2) | 0.223 | 0.75 |
| CC[C@H](C)[C@H](NC(=O)[C@H](CC(C)C)NC(=O)[C@H](Cc1ccc(O)cc1)NC(=O)[C@@H](CCC(=O)O)NC(=O)[C@@H](NC(=O)[C@H](Cc1ccccc1)NC(=O)[C@@H](NC(=O)C(C)(C)NC(=O)[C@H](CCC(N)=O)NC(=O)[C@H](C)NC(=O)[C@H](CCCCNC(=O)COCCOCCNC(=O)COCCOCCNC(=O)CC[C@H](NC(=O)CCCCCCCCCCCCCCCCCCC(=O)O)C(=O)O)NC(=O)[C@H](CCN)NC(=O)[C@H](CC(=O)O)NC(=O)[C@H](CC(C)C)NC(=O)[C@](C)(CC(C)C)NC(=O)[C@@H](NC(=O)[C@H](CO)NC(=O)[C@H](Cc1c[nH]cn1)NC(=O)[C@H](CC(=O)O)NC(=O)[C@H](CO)NC(=O)[C@@H](NC(=O)[C@](C)(Cc1ccccc1F)NC(=O)[C@@H](NC(=O)CNC(=O)[C@H](CCC(=O)O)NC(=O)C(C)(C)NC(=O)[C@@H](N)Cc1ccc(O)cc1)[C@@H](C)O)[C@@H](C)O)[C@@H](C)CC)[C@@H](C)O)[C@@H](C)CC)C(=O)N[C@@H](CCC(=O)O)C(=O)NCC(=O)NCC(=O)N1CCC[C@H]1C(=O)N[C@@H](CO)C(=O)N[C@@H](CO)C(=O)NCC(=O)N[C@@H](C)C(=O)N1CCC[C@H]1C(=O)N1CCC[C@H]1C(=O)N1CCC[C@H]1C(=O)N[C@@H](CO)C(N)=O [Example 172] (H-Y[Aib]EGT[αMePhe(2-F)]TSDHSI[αMeL]LD[Dab]K([AEEA-AEEA-γGlu-C20 diacid])AQ[Aib]TFI[dE]YLIEGGPSSGAPPPS-NH2; N-terminus assumed) | 1.05 | 1.2 |
| CC[C@H](C)[C@H](NC(=O)[C@H](CC(C)C)NC(=O)[C@H](Cc1ccc(O)cc1)NC(=O)[C@@H](CCC(=O)O)NC(=O)[C@@H](NC(=O)[C@H](Cc1ccccc1)NC(=O)[C@@H](NC(=O)C(C)(C)NC(=O)[C@H](CCC(N)=O)NC(=O)[C@H](C)NC(=O)[C@H](CCCCNC(=O)COCCOCCNC(=O)COCCOCCNC(=O)CC[C@H](NC(=O)CCCCCCCCCCCCCCCCCCC(=O)O)C(=O)O)NC(=O)[C@H](CN)NC(=O)[C@H](CC(=O)O)NC(=O)[C@H](CC(C)C)NC(=O)[C@](C)(CC(C)C)NC(=O)[C@@H](NC(=O)[C@H](CO)NC(=O)[C@H](Cc1c[nH]cn1)NC(=O)[C@H](CC(=O)O)NC(=O)[C@H](CO)NC(=O)[C@@H](NC(=O)[C@](C)(Cc1ccccc1F)NC(=O)[C@@H](NC(=O)CNC(=O)[C@H](CCC(=O)O)NC(=O)C(C)(C)NC(=O)[C@@H](N)Cc1ccc(O)cc1)[C@@H](C)O)[C@@H](C)O)[C@@H](C)CC)[C@@H](C)O)[C@@H](C)CC)C(=O)N[C@@H](CCC(=O)O)C(=O)NCC(=O)NCC(=O)N1CCC[C@H]1C(=O)N[C@@H](CO)C(=O)N[C@@H](CO)C(=O)NCC(=O)N[C@@H](C)C(=O)N1CCC[C@H]1C(=O)N1CCC[C@H]1C(=O)N1CCC[C@H]1C(=O)N[C@@H](CO)C(N)=O [Example 173] (H-Y[Aib]EGT[αMePhe(2-F)]TSDHSI[αMeL]LD[Dap]K([AEEA-AEEA-γGlu-C20 diacid])AQ[Aib]TFI[dE]YLIEGGPSSGAPPPS-NH2) | 0.586 | 1.23 |
| CC[C@H](C)[C@H](NC(=O)[C@H](CC(C)C)NC(=O)[C@H](Cc1ccc(O)cc1)NC(=O)[C@@H](CCC(=O)O)NC(=O)[C@@H](NC(=O)[C@H](Cc1ccccc1)NC(=O)[C@@H](NC(=O)C(C)(C)NC(=O)[C@H](CCC(N)=O)NC(=O)[C@H](C)NC(=O)[C@H](CCCCNC(=O)COCCOCCNC(=O)COCCOCCNC(=O)CCCCCCCCCCCCCCCCCCC(=O)O)NC(=O)[C@H](CCC(=O)O)NC(=O)[C@H](CC(=O)O)NC(=O)[C@H](CC(C)C)NC(=O)[C@](C)(CC(C)C)NC(=O)[C@@H](NC(=O)[C@H](CO)NC(=O)[C@H](Cc1c[nH]cn1)NC(=O)[C@H](CC(=O)O)NC(=O)[C@H](CO)NC(=O)[C@@H](NC(=O)[C@](C)(Cc1ccccc1F)NC(=O)[C@@H](NC(=O)CNC(=O)[C@H](CCC(=O)O)NC(=O)C(C)(C)NC(=O)[C@@H](N)Cc1ccc(O)cc1)[C@@H](C)O)[C@@H](C)O)[C@@H](C)CC)[C@@H](C)O)[C@@H](C)CC)C(=O)N[C@@H](CCC(=O)O)C(=O)NCC(=O)NCC(=O)N1CCC[C@H]1C(=O)N[C@@H](CO)C(=O)N[C@@H](CO)C(=O)NCC(=O)N[C@@H](C)C(=O)N1CCC[C@H]1C(=O)N1CCC[C@H]1C(=O)N1CCC[C@H]1C(=O)N[C@@H](CO)C(N)=O [Example 174] (H-Y[Aib]EGT[αMePhe(2-F)]TSDHSI[αMeL]LDEK([AEEA-AEEA-C20 diacid])AQ[Aib]TFI[dE]YLIEGGPSSGAPPPS-NH2) | 0.217 | 0.472 |
